Laboratory results as given in US9238656B2, “Imidazo[4,5-b]pyridine derivatives as ALK and JAK modulators for the treatment of proliferative disorders” (priority 2012, dated 2016).
pIC50: −log10 of the molar value. Structures can show the parent of a compound that is named as a salt.

Tests used:
[1] = target: baculovirus-expressed ALK (Homo sapiens, UniProt Q9UM73); experiment: ALK kinase inhibition, TRF/ELISA; assay type: biochemical; conditions: read-out: ALK Potency
Description: Briefly, each 96-well plate was coated with 100 μL/well of 10 μg/mL substrate (GST-PLC-γ) in Tris-buffered saline (TBS). […] The reaction was initiated by adding enzyme (30 ng/mL ALK) and was allowed to proceed at 37° C. for 15 minutes. Detection of the phosphorylated product was performed by adding 100 μL/well of Eu-N1 labeled PT66 antibody (Perkin Elmer #AD0041). […] Data analysis was performed using ActivityBase (IDBS, Guilford, UK). IC50 values were calculated by plotting percent inhibition versus log10 of the concentration of compound and fitting to the nonlinear regression sigmoidal dose-response (variable slope) equation in XLFit (IDBS, Guilford, UK).

[2] = target: baculovirus-expressed JAK2 kinase (Homo sapiens, UniProt O60674); experiment: biochemical; conditions: 0.2 μM ATP; read-out: JAK2 Potency
Description: Compounds were tested for their ability to inhibit the kinase activity of baculovirus-expressed JAK2 kinase using the time-resolved fluorescence (TRF) detection system. […] The plates were coated with 100 μL/well of 10 μg/mL Neutravidin (Pierce #31000, Rockford, Ill.) in TBS at 37° C. for 2 h, followed by 100 μL/well of 1 μg/mL 15-mer peptide substrate (biotinyl-amino-hexanoyl-[…]-amide, Infinity Biotech Research and Resource, Aston, Pa.) at 37° C. for 1 h. […] Enzyme (15 ng/mL JAK2) was added and the reaction was allowed to proceed at room temperature for 20 min. […] Inhibition data were analyzed using ActivityBase (IDBS, Guilford, UK). IC50 values were calculated by plotting percent inhibition versus log10 of the concentration of compound and fitting to the nonlinear regression sigmoidal dose-response (variable slope) equation in XLFit (IDBS, Guilford, UK).

baculovirus-expressed JAK2 kinase, sequence (O60674 whole entry): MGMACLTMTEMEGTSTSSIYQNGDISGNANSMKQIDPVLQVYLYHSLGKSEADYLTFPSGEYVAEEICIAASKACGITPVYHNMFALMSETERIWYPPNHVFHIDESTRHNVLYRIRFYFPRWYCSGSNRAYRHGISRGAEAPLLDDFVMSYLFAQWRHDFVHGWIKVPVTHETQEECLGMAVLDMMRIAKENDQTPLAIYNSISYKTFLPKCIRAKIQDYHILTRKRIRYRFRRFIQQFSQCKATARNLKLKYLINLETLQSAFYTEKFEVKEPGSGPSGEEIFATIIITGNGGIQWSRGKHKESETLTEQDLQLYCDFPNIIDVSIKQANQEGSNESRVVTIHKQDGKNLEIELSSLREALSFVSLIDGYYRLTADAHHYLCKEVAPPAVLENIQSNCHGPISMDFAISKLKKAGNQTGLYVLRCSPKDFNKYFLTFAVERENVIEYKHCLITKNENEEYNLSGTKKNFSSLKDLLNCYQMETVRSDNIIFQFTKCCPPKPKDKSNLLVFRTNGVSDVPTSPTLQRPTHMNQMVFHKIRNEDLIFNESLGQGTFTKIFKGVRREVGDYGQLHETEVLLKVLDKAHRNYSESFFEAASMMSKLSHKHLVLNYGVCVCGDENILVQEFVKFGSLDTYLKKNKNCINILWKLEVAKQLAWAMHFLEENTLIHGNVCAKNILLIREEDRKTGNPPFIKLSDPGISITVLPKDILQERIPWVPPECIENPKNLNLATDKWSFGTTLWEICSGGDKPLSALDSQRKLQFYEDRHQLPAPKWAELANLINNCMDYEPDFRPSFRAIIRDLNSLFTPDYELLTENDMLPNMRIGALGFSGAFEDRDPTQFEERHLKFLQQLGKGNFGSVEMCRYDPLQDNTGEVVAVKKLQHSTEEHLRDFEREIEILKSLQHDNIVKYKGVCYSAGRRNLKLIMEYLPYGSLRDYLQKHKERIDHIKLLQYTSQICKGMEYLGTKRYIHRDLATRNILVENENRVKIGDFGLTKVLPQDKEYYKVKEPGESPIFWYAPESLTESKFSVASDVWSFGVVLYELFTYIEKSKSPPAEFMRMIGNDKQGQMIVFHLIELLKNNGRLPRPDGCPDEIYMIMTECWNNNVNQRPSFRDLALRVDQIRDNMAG
baculovirus-expressed ALK, sequence (Q9UM73 19-1620): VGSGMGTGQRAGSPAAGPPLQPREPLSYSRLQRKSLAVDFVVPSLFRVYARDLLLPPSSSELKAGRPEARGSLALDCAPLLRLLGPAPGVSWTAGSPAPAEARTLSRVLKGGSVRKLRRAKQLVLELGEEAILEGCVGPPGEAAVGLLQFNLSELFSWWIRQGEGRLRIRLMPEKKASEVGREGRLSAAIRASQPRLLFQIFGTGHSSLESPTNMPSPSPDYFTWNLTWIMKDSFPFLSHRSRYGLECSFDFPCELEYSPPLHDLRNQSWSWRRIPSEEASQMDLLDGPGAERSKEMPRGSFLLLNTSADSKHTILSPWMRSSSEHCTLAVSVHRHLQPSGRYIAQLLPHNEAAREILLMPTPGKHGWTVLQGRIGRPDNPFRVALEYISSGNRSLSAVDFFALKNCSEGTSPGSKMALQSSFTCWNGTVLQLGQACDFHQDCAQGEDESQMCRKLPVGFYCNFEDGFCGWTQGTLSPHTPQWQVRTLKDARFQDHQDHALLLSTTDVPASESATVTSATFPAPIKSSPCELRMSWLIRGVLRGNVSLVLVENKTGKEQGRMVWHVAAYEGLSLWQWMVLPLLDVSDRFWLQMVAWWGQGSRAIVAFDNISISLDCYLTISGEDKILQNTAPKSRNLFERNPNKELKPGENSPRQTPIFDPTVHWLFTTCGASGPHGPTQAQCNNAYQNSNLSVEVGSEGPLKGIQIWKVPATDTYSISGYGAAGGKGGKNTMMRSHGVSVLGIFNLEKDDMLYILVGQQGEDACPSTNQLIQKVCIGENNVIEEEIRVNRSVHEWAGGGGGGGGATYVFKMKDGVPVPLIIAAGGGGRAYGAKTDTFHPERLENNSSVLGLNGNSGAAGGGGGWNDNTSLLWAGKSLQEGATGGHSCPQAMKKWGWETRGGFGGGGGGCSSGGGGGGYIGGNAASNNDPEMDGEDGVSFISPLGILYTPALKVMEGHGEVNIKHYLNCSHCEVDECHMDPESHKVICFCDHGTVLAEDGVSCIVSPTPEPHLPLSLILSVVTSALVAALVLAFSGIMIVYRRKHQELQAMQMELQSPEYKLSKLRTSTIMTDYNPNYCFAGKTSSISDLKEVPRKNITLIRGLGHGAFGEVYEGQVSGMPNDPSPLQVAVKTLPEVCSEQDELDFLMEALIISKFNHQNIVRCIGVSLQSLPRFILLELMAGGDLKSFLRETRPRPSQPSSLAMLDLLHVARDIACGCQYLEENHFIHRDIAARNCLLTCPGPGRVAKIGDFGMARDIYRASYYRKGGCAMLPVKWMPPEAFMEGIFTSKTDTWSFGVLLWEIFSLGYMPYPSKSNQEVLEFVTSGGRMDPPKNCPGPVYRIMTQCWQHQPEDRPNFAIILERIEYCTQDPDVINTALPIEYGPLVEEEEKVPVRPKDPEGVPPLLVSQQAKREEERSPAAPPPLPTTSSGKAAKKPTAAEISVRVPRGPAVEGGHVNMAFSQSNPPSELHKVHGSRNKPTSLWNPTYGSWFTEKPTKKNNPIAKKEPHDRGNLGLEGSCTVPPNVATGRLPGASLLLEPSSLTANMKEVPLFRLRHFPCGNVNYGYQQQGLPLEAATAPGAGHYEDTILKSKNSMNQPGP

Structure (SMILES) | pIC50 [1] | pIC50 [2]
CN(C)CCOc1ccc(-c2nc3c(N[C@H]4[C@@H](C(=O)N(C)C)[C@@H]5C=C[C@H]4C5)c(Cl)cnc3[nH]2)cc1 [Compound CLXXVII, (1S,2S,3R,4R)-3-[6-Chloro-2-[4-(2-dimethylamino-ethoxy)-phenyl]-3H-imidazo[4,5-b]pyridin-7-ylamino]-bicyclo[2.2.1]hept-5-ene-2-carboxylic acid dimethylamide] | 6.00 to 7.00 | > 7.00
NC(=O)[C@@H]1[C@H](Nc2c(Cl)cnc3[nH]c(-c4cccc(C(=O)O)c4)nc23)[C@H]2C=C[C@@H]1C2 [Compound CCXVII, 3-(7-((1R,2R,3S,4S)-3-carbamoylbicyclo[2.2.1]hept-5-en-2-ylamino)-6-chloro-3H-imidazo[4,5-b]pyridin-2-yl)benzoic acid] | 5.00 to 6.00 | > 7.00
CN(C)C(=O)[C@@H]1[C@H](Nc2c(Cl)cnc3[nH]c(-c4sc(N5CCCC5)nc4Cl)nc23)[C@H]2C=C[C@@H]1C2 [Compound CLXIV, (1S,2S,3R,4R)-3-[6-Chloro-2-(4-chloro-2-pyrrolidin-1-yl-thiazol-5-yl)-3H-imidazo[4,5-b]pyridin-7-ylamino]-bicyclo[2.2.1]hept-5-ene-2-carboxylic acid dimethylamide] | > 7.00 | > 7.00
NC(=O)[C@@H]1[C@H](Nc2c(Cl)cnc3[nH]c(-c4cccc(CN5CCOCC5)c4)nc23)[C@H]2C=C[C@@H]1C2 [Compound XVI, (1S,2S,3R,4R)-3-[6-Chloro-2-(3-morpholin-4-ylmethyl-phenyl)-3H-imidazo[4,5-b]pyridin-7-ylamino]-bicyclo[2.2.1]hept-5-ene-2-carboxylic acid amide trifluoroacetic acid salt] | > 7.00 | > 7.00
CN1CCN(C(=O)COc2cccc(-c3nc4c(N[C@H]5[C@@H](C(N)=O)[C@@H]6C=C[C@H]5C6)c(Cl)cnc4[nH]3)c2)CC1 [Compound CCXLIII, (1S,2S,3R,4R)-3-(6-chloro-2-(3-(2-(4-methylpiperazin-1-yl)-2-oxoethoxy)phenyl)-3H-imidazo[4,5-b]pyridine-7-ylamino)pyridin[2.2.1]hept-5-ene-2-carboxamide] | > 7.00 | > 7.00
COc1cc(CN2CC[C@@H](O)C2)ccc1-c1nc2c(N[C@H]3[C@@H](C(N)=O)[C@@H]4C=C[C@H]3C4)c(Cl)cnc2[nH]1 [Compound XLVII, (1S,2S,3R,4R)-3-(6-Chloro-2-[4-((R)-3-hydroxy-pyrrolidin-1-ylmethyl)-2-methoxyphenyl]-3H-imidazo[4,5-b]pyridine-7-ylamino)-bicyclo[2.2.1]hept-5-ene-2-carboxylic acid amide] | > 7.00 | > 7.00
CN1CCN(C(=O)COc2ccc(-c3nc4c(N[C@H]5[C@@H](C(N)=O)[C@@H]6C=C[C@H]5C6)c(Cl)cnc4[nH]3)cc2)CC1 [Compound CCXLIV, (1S,2S,3R,4R)-3-(6-chloro-2-(4-(2-(4-methylpiperazin-1-yl)-2-oxoethoxy)phenyl)-3H-imidazo[4,5-b]pyridin-7-ylamino)bicyclo[2.2.1]hept-5-ene-2-carboxamide] | > 7.00 | > 7.00
COc1cc(N2CCOCC2)ccc1-c1nc2c(N[C@H]3[C@@H](C(N)=O)[C@@H]4CC[C@H]3O4)c(Cl)cnc2[nH]1 [Compound CCVI, (1S,2R,3S,4R)-3-(6-chloro-2-(2-methoxy-4-morpholinophenyl)-3H-imidazo[4,5-b]pyridin-7-ylamino)-7-oxabicyclo[2.2.1]heptane-2-carboxamide] | 6.00 to 7.00 | 5.00 to 6.00
NC(=O)[C@@H]1[C@H](Nc2c(Br)cnc3[nH]c(-c4sc(N5CC[C@@H](O)C5)nc4Cl)nc23)[C@H]2C=C[C@@H]1C2 [Compound CLXXI, (1S,2S,3R,4R)-3-{6-Bromo-2-[4-chloro-2-((R)-3-hydroxy-pyrrolidin-1-yl)-thiazol-5-yl]-3H-imidazo[4,5-b]pyridin-7-ylamino}-bicyclo[2.2.1]hept-5-ene-2-carboxylic acid amide] | > 7.00 | > 7.00
NC(=O)[C@@H]1[C@H](Nc2c(Cl)cnc3[nH]c(-c4ccc(N5CCOCC5)c(Cl)c4)nc23)[C@H]2C=C[C@@H]1C2 [Compound CXXXVII, (1S,2S,3R,4R)-3-[6-Chloro-2-(3-chloro-4-morpholin-4-yl-phenyl)-3H-imidazo[4,5-b]pyridin-7-ylamino]-bicyclo[2.2.1]hept-5-ene-2-carboxylic acid amide] | 6.00 to 7.00 | > 7.00

Further lines, results first:

pIC50 [1] | pIC50 [2] | Structure (SMILES)
< 5.00 | > 7.00 | CC12CCC(Nc3c(Cl)cnc4[nH]c(-c5ccc(N6CCOCC6)cc5)nc34)(CC1=O)C2(C)C (stereo not drawn) [Compound CXCVIII, 4-(6-chloro-2-(4-morpholinophenyl)-3H-imidazo[4,5-b]pyridin-7-ylamino)-1,7,7-trimethylbicyclo[2.2.1]heptan-2-one]
> 7.00 | > 7.00 | CN(C)C(=O)[C@@H]1[C@H](Nc2c(Cl)cnc3[nH]c(-c4sc(N5CCOCC5)nc4Cl)nc23)[C@H]2C=C[C@@H]1C2 [Compound CLXII, (1S,2S,3R,4R)-3-[6-Chloro-2-(4-chloro-2-morpholin-4-yl-thiazol-5-yl)-3H-imidazo[4,5-b]pyridin-7-ylamino]-bicyclo[2.2.1]hept-5-ene-2-carboxylic acid dimethylamide]
6.00 to 7.00 | > 7.00 | N#Cc1cccc(-c2nc3c(N[C@H]4[C@@H](C(N)=O)[C@@H]5C=C[C@H]4C5)c(Br)cnc3[nH]2)c1 [Compound CXLVI, (1S,2S,3R,4R)-3-[6-Bromo-2-(3-cyano-phenyl)-3H-imidazo[4,5-b]pyridin-7-ylamino]-bicyclo[2.2.1]hept-5-ene-2-carboxylic acid amide]
> 7.00 | 5.00 to 6.00 | COc1cc(N2CCC(N3CCN(C)CC3)CC2)ccc1-c1nc2c(N[C@@H]3CCCC[C@H]3NS(C)(=O)=O)c(Cl)cnc2[nH]1 [CCLIII]
> 7.00 | > 7.00 | C[C@H](O)CN1CCC(n2cc(-c3nc4c(N[C@H]5[C@@H](C(N)=O)[C@@H]6C=C[C@H]5C6)c(Cl)cnc4[nH]3)cn2)CC1 [Compound LIX, (1S,2S,3R,4R)-3-(6-Chloro-2-{1-[1((S)-2-hydroxypropyl)-piperidin-4-yl]-1H-pyrazol-4-yl}-3H-imidazo[4,5-b]pyridine-7-ylamino)-bicyclo[2.2.1]hept-5-ene-2-carboxylic acid amide]
6.00 to 7.00 | > 7.00 | NC(=O)[C@@H]1[C@H](Nc2c(Cl)cnc3[nH]c(-c4cncs4)nc23)[C@H]2C=C[C@@H]1C2 [Compound CCVII, (1S,2S,3R,4R)-3-(6-chloro-2-(thiazol-5-yl)-3H-imidazo[4,5-b]pyridin-7-ylamino)bicyclo[2.2.1]hept-5-ene-2-carboxamide]
6.00 to 7.00 | > 7.00 | NC(=O)[C@@H]1[C@H](Nc2c(Cl)cnc3[nH]c(-c4ccccc4Cl)nc23)[C@H]2C=C[C@@H]1C2 [Compound CXLVIII, (1S,2S,3R,4R)-3-[6-Chloro-2-(2-chloro-phenyl)-3H-imidazo[4,5-b]pyridin-7-ylamino]-bicyclo[2.2.1]hept-5-ene-2-carboxylic acid amide]
6.00 to 7.00 | > 7.00 | CC(O)CN1CCN(C(=O)COc2cccc(-c3nc4c(N[C@H]5[C@@H](C(N)=O)[C@@H]6C=C[C@H]5C6)c(Cl)cnc4[nH]3)c2)CC1 (stereo partly drawn) [Compound CCXLI, (1S,2S,3R,4R)-3-(6-chloro-2-(3-(2-(4-(2-hydroxypropyl)piperazin-1-yl)-2-oxoethoxy)phenyl)-3H-imidazo[4,5-b]pyridin-7-ylamino)bicyclo[2.2.1]hept-5-ene-2-carboxamide]
